Assay results from patent publication US8754242B2, “Herbicides” (Syngenta Crop Protection LLC, priority 2007, dated 2014).

Tests used:
Assay type in all cases: in vivo
[1] = tested on: Alopecurus myosuroides (ALOMY); assay: Test Example 1 pre-emergence herbicidal activity; details: Alopecurus myosuroides, 480 h, rate 250 g/ha, evaluated 20 days later, read-out: Pre-emergence activity ALOMY (100=total damage to plant; 0=no damage to plant)
Method in brief: (§1)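 Sow in pots of standard soil → grow 1 day (pre-emergence) or 10 days (post-emergence) in glasshouse → spray aqueous formulated compound → grow on under optimum conditions → score damage 0–100 at day 20 (pre) or day 15 (post).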

[2] = tested on: Avena fatua (AVEFA); assay: Test Example 1 pre-emergence herbicidal activity; details: Avena fatua, 480 h, rate 250 g/ha, evaluated 20 days later, read-out: Pre-emergence activity AVEFA (100=total damage to plant; 0=no damage to plant)
Method in brief: as §1

[3] = tested on: Digitaria sanguinalis (DIGSA); assay: Test Example 1 pre-emergence herbicidal activity; details: Digitaria sanguinalis, 480 h, rate 250 g/ha, evaluated 20 days later, read-out: Pre-emergence activity DIGSA (100=total damage to plant; 0=no damage to plant)
Method in brief: as §1

[4] = tested on: Echinochloa crus-galli (ECHCG); assay: Test Example 1 pre-emergence herbicidal activity; details: Echinochloa crus-galli, 480 h, rate 250 g/ha, evaluated 20 days later, read-out: Pre-emergence activity ECHCG (100=total damage to plant; 0=no damage to plant)
Method in brief: as §1

[5] = tested on: Lolium perenne (LOLPE); assay: Test Example 1 pre-emergence herbicidal activity; details: Lolium perenne, 480 h, rate 250 g/ha, evaluated 20 days later, read-out: Pre-emergence activity LOLPE (100=total damage to plant; 0=no damage to plant)
Method in brief: as §1

[6] = tested on: Setaria faberi (SETFA); assay: Test Example 1 pre-emergence herbicidal activity; details: Setaria faberi, 480 h, rate 250 g/ha, evaluated 20 days later, read-out: Pre-emergence activity SETFA (100=total damage to plant; 0=no damage to plant)
Method in brief: as §1

[7] = tested on: Alopecurus myosuroides (ALOMY); assay: Test Example 1 post-emergence herbicidal activity; details: 360 h, rate 125 g/ha, evaluated 15 days later, read-out: Post-emergence activity ALOMY (100=total damage to plant; 0=no damage to plant)
Method in brief: as §1

[8] = tested on: Avena fatua (AVEFA); assay: Test Example 1 post-emergence herbicidal activity; details: 360 h, rate 125 g/ha, evaluated 15 days later, read-out: Post-emergence activity AVEFA (100=total damage to plant; 0=no damage to plant)
Method in brief: as §1

[9] = tested on: Digitaria sanguinalis (DIGSA); assay: Test Example 1 post-emergence herbicidal activity; details: 360 h, rate 125 g/ha, evaluated 15 days later, read-out: Post-emergence activity DIGSA (100=total damage to plant; 0=no damage to plant)
Method in brief: as §1

[10] = tested on: Echinochloa crus-galli (ECHCG); assay: Test Example 1 post-emergence herbicidal activity; details: 360 h, rate 125 g/ha, evaluated 15 days later, read-out: Post-emergence activity ECHCG (100=total damage to plant; 0=no damage to plant)
Method in brief: as §1

[11] = tested on: Lolium perenne (LOLPE); assay: Test Example 1 post-emergence herbicidal activity; details: 360 h, rate 125 g/ha, evaluated 15 days later, read-out: Post-emergence activity LOLPE (100=total damage to plant; 0=no damage to plant)
Method in brief: as §1

[12] = tested on: Setaria faberi (SETFA); assay: Test Example 1 post-emergence herbicidal activity; details: 360 h, rate 125 g/ha, evaluated 15 days later, read-out: Post-emergence activity SETFA (100=total damage to plant; 0=no damage to plant)
Method in brief: as §1

Row | Structure (SMILES) | pest or weed control at 250 g/ha [1] [%] | pest or weed control at 250 g/ha [2] [%] | pest or weed control at 250 g/ha [3] [%] | pest or weed control at 250 g/ha [4] [%] | pest or weed control at 250 g/ha [5] [%] | pest or weed control at 250 g/ha [6] [%] | pest or weed control at 125 g/ha [7] [%] | pest or weed control at 125 g/ha [8] [%] | pest or weed control at 125 g/ha [9] [%] | pest or weed control at 125 g/ha [10] [%] | pest or weed control at 125 g/ha [11] [%] | pest or weed control at 125 g/ha [12] [%]
1 | CC1=C[C@@H]2O[C@H]1[C@H]1C(O)=C(c3c(C)cc(C)cc3C)C(=O)[C@H]12 (racemic) [Example T44] | 80 | 40 | 80 | 70 | 70 | 80 | 80 | 50 | 80 | 90 | 20 | 80
2 | Cc1cc(C)c(C2=C(O)[C@@H]3[C@@H]4O[C@@H](C[C@H]4c4cc(C(F)(F)F)nc(C(F)(F)F)c4)[C@@H]3C2=O)c(C)c1 (racemic) [Example T199] | 0 | 50 | 100 | 80 | 60 | 60 | 100 | 100 | 100 | 100 | 60 | 80
3 | CCc1cc(C)cc(CC)c1C1=C(O)[C@@H]2[C@@H]3O[C@@H](C[C@H]3c3ccc(SC)cc3)[C@@H]2C1=O [Example T162] | 70 | 70 | 40 | 80 | 90 | 10 | 90 | 90 | 100 | 100 | 70 | 100
4 | C#CCOC(=O)OC1=C(c2c(C)cc(C)cc2C)C(=O)[C@@H]2[C@H]1[C@H]1CC[C@@H]2O1 (racemic) [Example P3] | 100 | 100 | 90 | 100 | 100 | 90 | 100 | 90 | 70 | 100 | 100 | 80
5 | CCc1cc(C)cc(CC)c1C1=C(O)[C@@H]2[C@@H]3O[C@@H](C[C@H]3c3ccc(F)cc3)[C@@H]2C1=O [Example T185] | 80 | 80 | 80 | 80 | 100 | 80 | 90 | 80 | 100 | 100 | 80 | 100
6 | CCc1cc(C)cc(CC)c1C1=C(O)[C@@H]2[C@@H]3O[C@@H](C[C@H]3c3cccc(OC)c3)[C@@H]2C1=O [Example T153] | 70 | 70 | 60 | 70 | 80 | 70 | 50 | 80 | 30 | 70 | 50 | 20
7 | C=CCC(=O)OC1=C(c2c(CC)cc(C)cc2CC)C(=O)[C@@H]2[C@H]1[C@H]1CC[C@@H]2O1 [Example P23] | 80 | 90 | 100 | 100 | 100 | 100 | 100 | 90 | 70 | 100 | 90 | 80
8 | CCc1cc(C)cc(CC)c1C1=C(O)[C@H]2[C@@H](C1=O)[C@]1(C)CC[C@@]2(C)O1 [Example T7] | 100 | 80 | 80 | 90 | 100 | 90 | 100 | 90 | 70 | 90 | 90 | 90
9 | CCc1cc(C)cc(CC)c1C1=C(O)[C@H]2[C@@H](C1=O)[C@@H]1C=C[C@@]2(CO)O1 (racemic) [Example T13] | 80 | 80 | 100 | 100 | 90 | 100 | 80 | 90 | 50 | 100 | 90 | 100
10 | COC[C@H]1C[C@@H]2O[C@H]1[C@H]1C(O)=C(c3c(C)cc(C)cc3C)C(=O)[C@H]12 [Example T47] | 100 | 80 | 70 | 100 | 100 | 80 | 100 | 90 | 60 | 100 | 90 | 70
11 | Cc1cc(C)c(C2=C(O)[C@@H]3[C@@H]4O[C@@H](C[C@H]4c4ccc(C#N)cc4)[C@@H]3C2=O)c(C)c1 [Example T93] | 40 | 30 | 30 | 0 | 20 | 30 | 60 | 80 | 100 | 100 | 60 | 100
12 | CCc1cc(C)cc(CC)c1C1=C(O)[C@H]2[C@@H](C1=O)[C@@H]1CC[C@@]2(CO)O1 [Example T14] | 90 | 90 | 70 | 90 | 100 | 100 | 80 | 80 | 90 | 100 | 80 | 100
13 | CCc1cc(C)cc(CC)c1C1=C(O)[C@@H]2[C@@H]3O[C@@H](C[C@H]3c3ccc([N+](=O)[O-])cc3Cl)[C@@H]2C1=O [Example T167] | 30 | 40 | 30 | 50 | 40 | 0 | 80 | 50 | 70 | 100 | 50 | 70
